Data reported in patent US9981940B2, “Aryl sulfide derivatives and aryl sulfoxide derivatives as acaricides and insecticides” (BAYER CROPSCIENCE AKTIENGESELLSCHAFT, priority 2013, dated 2018).

Legend:
Phaedon cochleariae = Phaedon cochleariae spray test (PHAECO); assay type: in vivo; details: after 7 days; for pest or weed control at 500 g/ha: Phaedon cochleariae, 168 h, read-out: efficacy
Method: Phaedon cochleariae—Spray Test (PHAECO)
• Solvent: 78.0 parts by weight of acetone • 1.5 parts by weight of dimethylformamide • Emulsifier: 0.5 part by weight of alkylaryl polyglycol ether
To produce an appropriate active ingredient formulation, 1 part by weight of active ingredient is mixed with the specified amounts of solvent and emulsifier, and the concentrate is diluted to the desired concentration with emulsifier-containing water.
Discs of Chinese cabbage leaves (Brassica pekinensis) are sprayed with an active ingredient formulation of the desired concentration and, after drying, populated with larvae of the mustard beetle (Phaedon cochleariae).
After 7 days, the efficacy in % is determined 100% means that all beetle larvae have been killed; 0% means that none of the beetle larvae have been killed.

Tetranychus urticae = Tetranychus urticae spray test, OP-resistant (TETRUR); assay type: in vivo; details: application rate of 500 g/ha, after 6 days; for pest or weed control at 500 g/ha: Tetranychus urticae, 144 h, read-out: efficacy
Outline: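 Bean leaf discs infested with all stages of an OP-resistant Tetranychus urticae strain sprayed with compound in acetone/DMF with alkylaryl polyglycol ether emulsifier, diluted in water. Efficacy in % scored after 6 days; 100% means all mites killed.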

[1] = log P by HPLC (OECD Guideline 117), method [a] acidic range; assay type: physicochemical; details: for logP[a]: HPLC, method [a] acidic range; for chromatographic logP: reversed-phase C18 HPLC column, acidic range
Method: (§1) The log P values were determined analogously to OECD Guideline 117 (EC Directive 92/69/EEC) by HPLC (high-performance liquid chromatography) using reversed-phase columns (C 18), by the following methods:
[a] The LC-MS determination in the acidic range is effected at pH 2.7 with 0.1% aqueous formic acid and acetonitrile (contains 0.1% formic acid) as eluents; linear gradient from 10% acetonitrile to 95% acetonitrile.

[2] = log P by HPLC (OECD Guideline 117), method [b] neutral range; assay type: physicochemical; details: HPLC; for logP[b]: method [b] neutral range; for chromatographic logP: reversed-phase C18 HPLC column, neutral range, pH 7.8
Method: as §1
[b] The LC-MS determination in the neutral range is effected at pH 7.8 with 0.001 molar aqueous ammonium hydrogencarbonate solution and acetonitrile as eluents; linear gradient from 10% acetonitrile to 95% acetonitrile.

Boophilus microplus = Boophilus microplus injection test (BOOPMI Inj); assay type: in vivo; details: application rate of 20 μg/animal, assessed after 7 days by laying of fertile eggs
Method: Use Examples Boophilus microplus Injection Test (BOOPMI Inj) • Solvent: dimethyl sulphoxide
To prepare an appropriate active ingredient formulation, 10 mg of active ingredient are mixed with 0.5 ml of solvent and the concentrate is diluted with solvent to the desired concentration.
1 μl of the active ingredient solution is injected into the abdomen of 5 engorged adult female cattle ticks (Boophilus microplus). The animals are transferred into dishes and kept in a climate-controlled room.
The efficacy is assessed after 7 days by laying of fertile eggs. Eggs which are not visibly fertile are stored in a climate-controlled cabinet until the larvae hatch after about 42 days.
An efficacy of 100% means that none of the ticks has laid any fertile eggs; 0% means that all the eggs are fertile.

[3] = pH 2.7, HPLC method [a], read-out: logP[a]
[4] = pH 2.7, HPLC, pH 2.7, read-out: log P[a]

| Compound | efficacy (Phaedon cochleariae; application rate of 500 g/ha) | efficacy (Tetranychus urticae) | logP[a] [1] | logP[b] [2] | efficacy (Phaedon cochleariae; application rate of 100 g/ha) | pest or weed control at 500 g/ha (Phaedon cochleariae; application rate of 500 g/ha) | pest or weed control at 500 g/ha (Tetranychus urticae) | chromatographic logP [1, 3] | chromatographic logP [1, 4] | chromatographic logP [2] | efficacy (Boophilus microplus) |
| --- | --- | --- | --- | --- | --- | --- | --- | --- | --- | --- | --- |
| Cc1cc(F)c(-n2nc(OCC(Cl)(Cl)Cl)n(C)c2=O)cc1SCC(F)(F)F [Example 376] | 100% | 100% | 4.23 | 4.18 |  |  |  |  |  |  |  |
| COc1nn(-c2cc([S+]([O-])CC(F)(F)F)c(Cl)cc2F)c(=O)n1C (stereo not drawn) [Example 98] |  | 100% | 2.12 | 2.10 | 83% |  |  |  |  |  |  |
| C=CCn1c(SC)nn(-c2cc([S+]([O-])CC(F)(F)F)c(C)cc2F)c1=O (stereo not drawn) [Example 272] | 83% | 100% | 2.54 | 2.48 |  |  |  |  |  |  |  |
| C=CCn1c(OC)nn(-c2cc([S+]([O-])CC(F)(F)F)c(C)cc2F)c1=O (racemic) [Example 183] | 100% | 100% | 2.24 | 2.21 |  |  |  |  |  |  |  |
| CNc1nn(-c2cc([S+]([O-])CC(F)(F)F)c(C)cc2F)c(=O)n1N (stereo not drawn) [Example 219] | 100% | 90% | 1.32 | 1.29 |  |  |  |  |  |  |  |
| Cc1cc(F)c(-n2nc(Cl)n(C)c2=O)cc1SCC(F)(F)F [Example 435] | 83% | 100% | 3.07 | 3.04 |  |  |  |  |  |  |  |
| Cc1cc(F)c(-n2nc(C)n(C)c2=O)cc1SCC(F)(F)F [Example 10, 2-{2-Fluoro-4-methyl-5-[(2,2,2-trifluoroethyl)sulphanyl]phenyl}-4,5-dimethyl-2,4-dihydro-3H-1,2,4-triazol-3-one] |  |  |  |  |  | 100% | 90% | 2.42 | 2.42 | 2.38 |  |
| Cc1cc(F)c(-n2nc(C)n(-c3ccccc3)c2=O)cc1SCC(F)(F)F [Example 350] | 83% | 100% | 3.40 | 3.34 |  |  |  |  |  |  |  |
| COc1nn(-c2ccc(C(F)(F)F)c(SCC(F)(F)F)c2)c(=O)n1C [Example 95, 5-Methoxy-4-methyl-2-{3-[(2,2,2-trifluoroethyl)sulphanyl]-4-(trifluoromethyl)phenyl}-2,4-dihydro-3H-1,2,4-triazol-3-one] |  |  |  |  |  | 83% |  | 3.74 | 3.74 | 3.64 |  |
| COc1nn(-c2cc(SCC(F)(F)F)c(C)cc2F)c(=O)n1C [Example 93] | 100% | 90% | 2.78 | 2.73 |  |  |  |  |  |  |  |
| CCOC1=CC(=O)N(c2cc(SCC(F)(F)F)c(C)cc2F)C1 [Example 330] | 100% | 90% | 3.29 | 3.21 |  |  |  |  |  |  |  |
| COC1=CC(=O)N(c2ccc(C(F)(F)F)c(SCC(F)(F)F)c2)C1 [Example 322] | 100% |  | 3.31 | 3.25 |  |  |  |  |  |  |  |
| Cc1cc(F)c(-n2nc(C)n(C)c2=O)cc1[S+]([O-])CC(F)(F)F (stereo not drawn) [Example 11, 2-{2-Fluoro-4-methyl-5-[(2,2,2-trifluoroethyl)sulphinyl]phenyl}-4,5-dimethyl-2,4-dihydro-3H-1,2,4-triazol-3-one] |  |  |  |  |  | 100% | 100% | 1.57 | 1.57 | 1.5 |  |
| Cc1cc(F)c(-n2nn[nH]c2=O)cc1[S+]([O-])CC(F)(F)F (stereo not drawn) [Example 303, 1-{2-Fluoro-4-methyl-5-[(2,2,2-trifluoroethyl)sulphinyl]phenyl}-1,4-dihydro-5H-tetrazol-5-one] |  |  |  |  |  | 100% |  | 1.59 | 1.59 | 0.37 |  |
| Cc1cc(F)c(-n2ncn(-c3ccc(F)cc3)c2=O)cc1[S+]([O-])CC(F)(F)F (racemic) [Example 355] | 83% | 90% | 2.45 | 2.41 |  |  |  |  |  |  |  |
| C=CCn1c(OC)nn(-c2ccc(C)c([S+]([O-])CC(F)(F)F)c2)c1=O (stereo not drawn) [Example 179] | 100% | 90% | 2.61 | 2.57 |  |  |  |  |  |  |  |
| Cc1cc(F)c(-n2nc(NC(C)C)n(N)c2=O)cc1[S+]([O-])CC(F)(F)F (stereo not drawn) [Example 225] | 100% | 100% | 1.87 | 1.83 |  |  |  |  |  |  |  |
| COc1ccc(-n2nc(OC)n(C3CC3)c2=O)cc1[S+]([O-])CC(F)(F)F (stereo not drawn) [Example 109] | 100% |  | 2.34 | 2.30 |  |  |  |  |  |  |  |
| Cc1cc(F)c(-n2nnn(C)c2=O)cc1[S+]([O-])CC(F)(F)F (stereo not drawn) [Example 301, 1-{2-Fluoro-4-methyl-5-[(2,2,2-trifluoroethyl)sulphinyl]phenyl}-4-methyl-1,4-dihydro-5H-tetrazol-5-one] |  |  |  |  |  |  | 100% | 1.87 | 1.87 | 1.82 | 100% |
| COc1nn(-c2cc([S+]([O-])CC(F)(F)F)c(C)cc2F)c(=O)n1C (stereo not drawn) [Example 94] | 83% |  | 1.77 | 1.77 |  |  |  |  |  |  |  |
| CCn1c([S+](C)[O-])nn(-c2cc([S+]([O-])CC(F)(F)F)c(C)cc2F)c1=O (stereo not drawn) [Example 241] |  | 100% | 1.65 | 1.61 |  |  |  |  |  |  | 100% |
| Cc1cc(F)c(-n2nnn(C)c2=O)cc1SCC(F)(F)F [Example 302, 1-{2-Fluoro-4-methyl-5-[(2,2,2-trifluoroethyl)sulphanyl]phenyl}-4-methyl-1,4-dihydro-5H-tetrazol-5-one] |  |  |  |  |  |  | 100% | 2.89 | 2.89 | 2.86 | 100% |
| Cc1cc(F)c(-n2nc([S+]([O-])C(C)C)n(C)c2=O)cc1[S+]([O-])CC(F)(F)F (stereo not drawn) [Example 245] |  | 100% | 1.94 | 1.90 |  |  |  |  |  |  | 100% |
| CSc1nn(-c2cc([S+]([O-])CC(F)(F)F)c(C)cc2F)c(=O)n1C1CC1 (stereo not drawn) [Example 257] |  | 100% | 2.45 | 2.40 |  |  |  |  |  |  | 100% |
| CCn1c(SC)nn(-c2cc([S+]([O-])CC(F)(F)F)c(C)cc2F)c1=O (stereo not drawn) [Example 270] |  | 100% | 2.39 | 2.33 |  |  |  |  |  |  | 100% |
| Cc1cc(F)c(-n2nc(S(C)(=O)=O)n(C3CC3)c2=O)cc1[S+]([O-])CC(F)(F)F (stereo not drawn) [Example 228] |  | 90% | 2.12 | 2.08 |  |  |  |  |  |  | 100% |
